Assay results as given in paper PMC8509428, “The Phenoxyalkyltriazine Antagonists for 5-HT6 Receptor with Promising Procognitive and Pharmacokinetic Properties In Vivo in Search for a Novel Therapeutic Approach to Dementia Diseases” (International Journal of Molecular Sciences, 2021).
Like-named read-outs stand apart in the source and are kept apart here.

What was measured:
dopaminergic receptor D2 = settings: ± SD; cited from earlier work
5-HT1AR = target: T1, 5-HT1AR (Homo sapiens, UniProt P08908); assay: Radioligand binding assay (RBA), 5-HT1AR; settings: ± SD; displacement of [3H]-8-OHDPAT, HEK-293 cells; read-out: Ki 5-HT1A (converted)
T1 construct: expressed in transfected cells; host or cells: HEK-293
T1 sequence (P08908 1-422): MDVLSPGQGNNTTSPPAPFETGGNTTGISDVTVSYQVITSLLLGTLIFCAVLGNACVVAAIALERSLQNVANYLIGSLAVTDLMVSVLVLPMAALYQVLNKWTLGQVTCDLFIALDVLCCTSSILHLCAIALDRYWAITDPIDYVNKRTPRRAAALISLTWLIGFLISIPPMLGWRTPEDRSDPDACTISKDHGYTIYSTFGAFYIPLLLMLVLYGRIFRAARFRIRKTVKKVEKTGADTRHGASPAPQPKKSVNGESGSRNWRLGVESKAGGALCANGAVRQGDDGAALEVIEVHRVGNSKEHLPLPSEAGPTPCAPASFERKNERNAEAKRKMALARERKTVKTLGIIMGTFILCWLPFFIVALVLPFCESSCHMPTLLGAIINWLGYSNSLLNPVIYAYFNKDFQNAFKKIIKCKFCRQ
Procedure: The cells used in the radioligand binding assays receptor 5-HT1A were stably expressed in HEK-293 cells. Transfections were performed with the use of Lipofectamine 2000. The binding procedure was accomplished via the displacement of 2.5 nM [^3H]-8-OHDPAT (135.2 Ci/mmol) for 5-HT1AR. Each compound was tested in triplicate in seven to eight different concentrations (10^−11 to 10^−4 M). The inhibition constants (Ki) were calculated using the Cheng–Prusoff equation [45] and the results are expressed as the mean of at least two independent experiments.

SH-SY5Y cells = assay: Intracellular ROS, DCFH-DA assay (neuroprotection); type: cell-based, human; settings: SH-SY5Y neuroblastoma cells
Procedure: ROS measurement was assayed by 2′,7′-Dichlorofluorescin diacetate (DCFH-DA, Sigma D6883). […] Briefly, SH-SY5Y cells (4 × 10^3 cells/well) were seeded in a black-sided, clear-bottom 384-well plate (Life Technologies, Warsaw, Poland) in DMEM without phenol red (Life Technologies, Warsaw, Poland) supplemented with 5% FBS and cultured for 24 h. The next day, the medium was removed, the cells were washed once with HBSS and treated for 45 min with non-fluorescent dye DCFH-DA (final concentration 25 μM, freshly prepared in warm HBSS). […] After that, toxic agents were added: H2O2 (200 μM), oxaliplatin (OXA, 25 μM) and rotenone (ROT, 32.5 μM) and the cells were incubated for 5 h. In our preliminary experiments, different concentration of toxic agents was tested to choose the convenient one that leads to 50% cell death. As a positive control, the cells were incubated alone with toxic agents. As a vehicle control, the cells were incubated with HBSS with 0.1% DMSO. In the presence of ROS, the non-fluorescent dye DCFH-DA is oxidized, producing fluorescent dichlorofluorescein (DCF). Fluorescence was measured at Ex/Em = 485/535 nm using the microplate reader EnSpire.

[1] = Bi-directional Caco-2 permeability assay; type: in vitro ADME; settings: human, pH 7.4, Caco-2, 10 µM, triplicate
[2] = target: human serotonin 5-HT6 receptor (Homo sapiens, UniProt P50406); assay: Functional assay for 5-HT6 receptor (cAMP, 1321N1 cells)
Chain of human serotonin 5-HT6 receptor (P50406 whole entry): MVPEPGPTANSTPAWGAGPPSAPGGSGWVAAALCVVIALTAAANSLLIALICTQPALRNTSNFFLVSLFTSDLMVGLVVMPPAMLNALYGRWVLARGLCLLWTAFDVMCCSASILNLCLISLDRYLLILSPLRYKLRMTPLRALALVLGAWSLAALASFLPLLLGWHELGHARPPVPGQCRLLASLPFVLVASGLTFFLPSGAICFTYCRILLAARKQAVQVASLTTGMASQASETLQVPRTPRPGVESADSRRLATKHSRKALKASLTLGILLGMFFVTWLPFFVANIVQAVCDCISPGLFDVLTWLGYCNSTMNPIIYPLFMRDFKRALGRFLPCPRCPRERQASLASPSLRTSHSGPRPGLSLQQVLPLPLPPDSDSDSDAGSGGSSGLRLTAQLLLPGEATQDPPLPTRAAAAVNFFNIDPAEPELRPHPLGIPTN

[3] = test system: MK-801-induced memory deficits in rats; assay: Novel object recognition (NOR) test, MK-801-induced memory impairment; type: in vivo, rat; settings: for Total Exploratory Time in T2 Session: mean ± SEM; for minimal effective dose in NOR test: i.p., reversal of MK-801-induced memory impairment
Procedure: Five days before the experiment, the rats were transferred to the laboratory, labelled and, thereafter, left to acclimate to the new environment. The animals were handling every five days before experiments to minimize the stress reaction. The protocol was adapted from the original work. The test session comprising of two trials separated by an inter-trial interval (ITI) of 1 h was carried out after 2 days of the training session. During the first trial (familiarization, T1) two identical objects (A1 and A2) were presented in the opposite corners of the open field, approximately 10 cm from the walls. During the second trial (recognition, T2) one of the A objects was replaced by a novel object B, so that the animals were presented with the A = familiar and B = novel objects. Both trials lasted for 3 min and the animals were returned to their home cages after T1.
The objects used were the metal Coca-Cola cans and the glass jars filled with sand. […] The sequence of presentations and the location of the objects were randomly assigned to each rat. After each measurement, the floor was cleaned and dried.
The animals explored the objects by looking, licking, sniffing or touching the object but not when leaning against, standing or sitting on the object. Any rat exploring the two objects for less than 5 s within 3 min of T1 or T2 was eliminated from the study. The exploration time of the objects was measured by a blind experimenter. Based on the exploration time (E) of two objects during T2, the discrimination index (DI) was calculated according to the formula: DI = (EB − EA)/(EA + […]). Using this metric, scores approaching zero reflects no preference while positive values reflect a preference for the novel object and negative numbers reflect a preference for the familiar.
MK-801, used to attenuate learning, was administered at the dose of 0.1 mg/kg (i.p.) 30 min before the familiarization phase (T1), while investigated compounds were given 60 min before T1 session. In such scheme of experiment we could observe the impact of investigated compounds on the one type of rats’ memory—episodic memory and one phase of memory process—[…].
The total exploration time in T2 was used to express the influence of the treatment on the exploratory activity of the animals.

5-HT7R = settings: ± SD; read-out: Ki 5-HT7 (converted); cited from earlier work
rats = assay: Forced swim test (FST); type: in vivo, rat; settings: for Immobility Time: 60 min before test, mean ± SEM
Procedure: The experiment was carried out according to the method of [54]. On the first day of the experiment, the animals were gently individually placed in Plexiglas cylinders (40 cm high, 18 cm in diameter) containing 15 cm of water maintained at 23–25 °C for 15 min. On removal from water, the rats were placed for 30 min in a Plexiglas box under 60-W bulb to dry. On the following day (24 h later), the rats were replaced in the cylinder and the total duration of immobility was recorded during the whole 5-min test period. The immobility was assigned when no additional activity was observed other than that necessary to keep the rat’s head above the water. Fresh water was used for each animal.

[4] = 1321-N1, read-out: 5-HT6 Antagonist Mode Emax
[5] = 1321-N1, read-out: 5-HT6R Agonist Mode Emax
[6] = 0.3 mg/kg i.p. + MK-801 0.1 mg/kg
[7] = 1 mg/kg i.p. + MK-801 0.1 mg/kg
[8] = 3 mg/kg i.p. + MK-801 0.1 mg/kg

Row | Compound | Ki (dopaminergic receptor D2) [nM] | Ki (5-HT1AR) [nM] | protective activity against rotenone-induced neurotoxicity (SH-SY5Y cells) | Papp A→B at 2 h, 10 µM [1] [×10⁻⁶ cm/s] | Papp B→A at 2 h, 10 µM [1] [×10⁻⁶ cm/s] | Emax [2, 4] [%] | Emax [2, 5] [%] | Total Exploratory Time in T2 Session ([3]; 0.1 mg/kg i.p. + MK-801 0.1 mg/kg) [s] | Total Exploratory Time in T2 Session [3, 6] [s] | Total Exploratory Time in T2 Session [3, 7] [s] | Total Exploratory Time in T2 Session [3, 8] | minimal effective dose in NOR test [3] [mg/kg] | Ki (5-HT7R) [nM] | Immobility Time (rats; 1 mg/kg i.p.) [s] | decrease of immobility time vs vehicle-treated group (rats; 3 mg/kg) | Immobility Time (rats; 3 mg/kg i.p.) [s] | decrease of immobility time vs vehicle-treated group (rats; 10 mg/kg) | Immobility Time (rats; 10 mg/kg i.p.) [s]
1 | CCC(Oc1ccccc1)c1nc(N)nc(N2CCN(C)CC2)n1 (racemic) [Compound 3, (RS)-4-(4-methylpiperazin-1-yl)-6-(1-phenoxypropyl)-1,3,5-triazin-2-amine] | 1510 | 3640 | protective activity | 3.16 ± 1.35 | 10.1 ± 0.15 | 100 | 9 ± 1.4 | 47.33 ± 4.79 | 38.14 ± 4.18 | 35.57 ± 3.76 | 34.14 ± 1.22; F(5,47) = 1.9394; NS s | 0.1 | 19900 | 177.50 ± 6.1 | about 30% | 159.13 ± 13.3 | about 36% | 134.63 ± 16.7
2 | CCC(Oc1cccc(Cl)c1Cl)c1nc(N)nc(N2CCN(C)CC2)n1 (racemic) [Compound 2, (RS)-4-[1-(2,3-dichlorophenoxy)propyl]-6-(4-methylpiperazin-1-yl)-1,3,5-triazin-2-amine] | 421 | 521 | protective activity | 50.3 ± 6.22 | 21.1 ± 2.14 | 96 | 5 ± 1.1 | – | 52.67 ± 5.37 | 40.33 ± 6.66 | 42.88 ± 2.10 F(4,27) = 3.5450; p < 0.05 s | 0.3 | 5200 | 223.13 ± 11.4 | – | 220.71 ± 4.7 | 25% | 171.38 ± 12.80
